Assay results published in a melting point compilation (Tetko et al.; mined from patent text by program, amines drawn as free bases though some values may be those of a salt).

Row | Compound | melting point
1 | CCOC(=O)c1cnc2onc(C)c2c1O | 150 to 152 °C
2 | Cc1nc(OCCCc2cc(OC(C)C)nn2Cc2ccc(Cl)cc2Cl)c(CC(=O)O)s1 | 75 to 77 °C
3 | c1cnc2ccc(Cn3cnc4ccc(-c5cn[nH]c5)nc43)cc2c1 | 214 to 216 °C
4 | NC(C=Cc1ccc(Cl)cc1)=NO | 102 to 104 °C
5 | O=C(O)Cc1ccc(O)c(Cl)c1 | 101 to 104 °C
6 | Cc1nc(Cl)cc(C2(c3ccc(Cl)cc3)CCC2)n1 | 96 to 98 °C
7 | CC(C)CC1(C(CC(C)N2C(=O)c3ccccc3C2=O)C(=O)NO)CCN(CCc2ccccc2)C1=O (stereo not drawn) | 113 to 114 °C
8 | CCOC(=O)c1ccc(C=C2C(=O)COC2=O)s1 | 204 to 206 °C
9 | CCC(C)NC1=NS(=O)(=O)c2cc([N+](=O)[O-])ccc2N1 (stereo not drawn) | 287 to 288 °C
10 | CS(=O)(=O)c1ccc(-c2ccccc2-c2ccc(F)c(Cl)c2)cc1 | 180 to 181 °C
11 | COC(=O)C(CC(C)C)NC(=O)C(CC(=O)c1ccccc1)Cc1ccccc1 (stereo not drawn) | 81 to 83 °C
12 | COCCO[C@H]1c2ccn3c(C)c(C)nc3c2N[C@H](c2ccccc2)[C@H]1OC(=O)c1ccccc1 | 78 to 80 °C
13 | Oc1cc(Cl)cc2c1CCC2 | 56 to 59 °C
14 | Cc1cc(C)c(Nc2nc(C)ncc2S(=O)(=O)c2ccc(-c3cccnc3)cc2)c(C)c1 | 190 to 192 °C
15 | COC(=O)C1C(=O)CC2CCC1N2C (mixture of isomers) | 104 to 107 °C
16 | Cc1cccc(CC(=O)O)c1OCCCc1cn(-c2ccc(C(F)(F)F)cn2)nc1C(C)(C)C | 86 to 87 °C
17 | CCn1c(=O)c2cc(O)c(O)cc2c2cc(O)c(O)cc21 | 309 to 310 °C
18 | COC(=O)C=Cc1csc2ccccc12 | 63 to 65 °C
19 | COC(=O)c1cc(-c2ncnc(C)c2C#N)c(F)cc1Cl | 142 to 144 °C
20 | CC(C)(C)c1cccc2c1OC(CNC(=O)OCc1ccccc1)C2 (stereo not drawn) | 73 to 76 °C
21 | O=S(=O)(c1ccccc1)n1ccc2c(OCC3CO3)cccc21 (stereo not drawn) | 96 °C
22 | CCOC(=O)Nc1cc(N(C(=O)OCC)S(C)(=O)=O)c(C#N)cc1F | 129 °C
23 | CCOC(=O)CCC(C)C1CC=C2C3=C(CCC21C)C1(C)CCC(O)C(C)(C)C1CC3 (stereo not drawn) | 122 to 124 °C
24 | CON(C)C(=O)c1cc(O)cc2cc(-c3ccc(O)cc3)oc12 | 125 to 127 °C
25 | O=C1OC(=O)c2c(Cl)c(Sc3ccccc3)c(Cl)c(Cl)c21 | 162 to 164 °C
26 | N#Cc1cc([N+](=O)[O-])ccc1N1CCC(N2CCCCC2)CC1 | 134 to 135 °C

Row | Compound | melting point
27 | COc1cc2cc3c(Nc4ccc(Sc5nccn5C)c(Cl)c4)c(C#N)cnc3cc2cc1OCCN1CCOCC1 | > 300 °C
28 | CC(C)(C)C(NC(=O)c1ccc(I)cc1)NS(=O)(=O)Nc1cccnc1 (stereo not drawn) | 177 to 178 °C
29 | COC(=O)c1c(O)c(Br)c(Br)n1C | 128 to 130 °C
30 | N#CCc1c(-c2ccccc2)[nH]c2nccnc12 | 247 to 248 °C
31 | Cc1cnnc2ccccc12 | 70 to 72 °C
32 | Cc1nc(S)nn1-c1ccc([N+](=O)[O-])cc1 | 202 °C
33 | O=C(OCc1ccccc1)c1ccc(OC(=O)c2cccc(C(=O)Oc3ccc(C(=O)OCc4ccccc4)cc3)c2)cc1 | 105 to 107 °C
34 | CC12CCC3c4ccc(C(=O)O)cc4CCC3C1CCC2C(=O)c1ccccc1 (stereo not drawn) | 210 to 215 °C
35 | CCCn1c(=O)c(N)nc2ccccc21 | 191 to 192 °C
36 | CCCCOC(=O)c1ccc(C(C(N)=O)C(C)c2ccccc2N2CCCCC2)cc1 (stereo not drawn) | 148 °C
37 | COC=C(C(=O)OC)c1ccccc1[C@@H]1O[C@H]1c1ccccc1 (relative stereo) | 110 to 113 °C
38 | CCOC(=O)NC(CCSC)C(N)=O (racemic) | 110 to 112 °C
39 | COc1cc(CCNC=O)cc2c1OCO2 | 108 to 110 °C
40 | C[Si](C)(C)C#Cc1ccc2c(c1)C1(c3ccccc3-c3ccccc31)c1cc(C#C[Si](C)(C)C)ccc1-2 | 267 to 269 °C
41 | O=C(c1ccc2nc(C3CC3)n(Cc3ccccc3Cl)c2c1)N1CCOCC1 | 193 to 195 °C
42 | NS(=O)(=O)c1cccc(C=NO)c1 | 107 to 108 °C
43 | CNn1cc(C(=O)O)c(=O)c2ccc(C)nc21 | 215 to 217 °C
44 | CCN1c2ncc(COc3ccc(O)cc3)cc2C(=O)N(C)c2ccc(Cl)nc21 | 199 to 200 °C
45 | O[C@@H](COc1cccc(-c2noc3ccsc23)c1)CN1CCN(c2ccccc2)CC1 | 127 to 129 °C
46 | O=Cc1cc2ccccc2[nH]1 | 134 to 137 °C
47 | OCCCN1CCN(c2ccccc2OCC(F)(F)F)CC1 | 94 to 96 °C
48 | CC12CCC3c4cc(N)c(OCc5ccccc5)cc4CCC3C1CCC2=O (stereo not drawn) | 205 to 207 °C
49 | O=C(Cn1c2c(c3ccccc31)CCNCC2)Nc1cccnc1 | 138 to 140 °C
50 | Cc1c(-c2cc(C#N)ccc2F)sc2nc(N)[nH]c(=O)c12 | 332 to 336 °C
51 | CC(=O)Nc1cccc2c1CC(=O)CC2 | 203 to 205 °C
52 | Cc1ccc(C(=O)NC(NC(=S)Nc2cccc(F)c2F)C(F)(F)F)cc1 (stereo not drawn) | 210 to 211 °C

Row | Compound | melting point
53 | COc1ccccc1NC(=O)c1ccc(C#N)cc1 | 158 to 160 °C
54 | Cc1csc2c1-n1cccc1C2=NO | 198 °C
55 | CC(C)(C)OC(=O)c1ccc([N+](=O)[O-])c(CBr)c1 | 61 to 65 °C
56 | C[C@@H](S[C@H]1CO[C@H](c2ccc(C(=O)Nc3ccncc3)cc2)OC1)[C@](O)(Cn1cncn1)c1ccc(F)cc1F | 133 °C
57 | CS(=O)c1ccnc(-c2nc(=O)c3ccccc3s2)c1 (stereo not drawn) | 205 to 206 °C
58 | COC(=O)CNS(=O)(=O)c1ccc(N2CCC(NC[C@H](O)c3ccc(O)c(NS(C)(=O)=O)c3)CC2)cc1 | 123 to 125 °C
59 | Cn1cnc([N+](=O)[O-])c1NCCN1CCC(Nc2nc3cccnc3n2Cc2ccc(F)cc2)CC1 | 199 °C
60 | COc1ccc(CN(CCN(C)CCCCNC(=NCCCOc2cccc(CN3CCCCC3)c2)NC#N)c2ccccn2)cc1 | 106 to 108 °C
61 | COc1cc2ccccc2cc1N(C)C(=O)N1CCN(c2cc(F)cc(F)c2)CC1 | 115 to 117 °C
62 | S=c1sc2ccccc2n1CNc1ccccc1 | 102 to 103 °C
63 | O=C(Nc1cccc(S(=O)(=O)NCc2ccncc2)c1)c1cnn2c(C(F)(F)F)cc(-c3ccc(C(F)(F)F)cc3)nc12 | 251 °C
64 | O=C(c1cccs1)C1(c2ccc(Cl)cc2)CCC1 | 74 to 76 °C
65 | Clc1ccc2nc(Cl)c3ncn(-c4ccccc4Cl)c3c2c1 | 194 to 200 °C
66 | C=CC(C)=CC(=CC)NCc1ccc2nc(NC3CCN(C)CC3)n(Cc3nc(C)ccc3O)c2c1 | 141 °C
67 | S=C(NCCc1c[nH]cn1)NCCN(Cc1ccc(Cl)c(Cl)c1)c1ccc(Br)cn1 | 72 to 78 °C
68 | COC(=O)Nc1cc2c(=O)n(NS(C)(=O)=O)c(=O)[nH]c2cc1C(F)(F)F | 232 to 240 °C
69 | CCOC(=O)c1ccc(N2CSCC2=O)cc1 | 68 to 69 °C
70 | CC(=O)NC[C@H]1CN(c2ccc(N3CCC(Cc4noc(C)n4)CC3)c(F)c2)C(=O)O1 | 136 to 138 °C
71 | Cc1oc(-c2ccccc2)nc1Cc1cc2cc(C#N)ccc2o1 | 139 to 140 °C
72 | COc1ccc2[nH]cc(/C(C#N)=C/c3cccc(C(N)=O)c3)c2c1 | 234 °C
73 | Cc1cc(N)c(C)c(C(=O)O)c1 | 146 °C
74 | O=C(Cc1ccnc(Cl)n1)c1ccc(F)cc1 | 112 to 113 °C
75 | CCCCOC(=O)[C@H]1CN(c2ccc3c(c2)sc(=O)n3C)C(=O)O1 | 85 to 87 °C
76 | O=C1Cc2cc(F)cc(C(=O)c3ccc(F)cc3)c2N1 | 195 to 196 °C
77 | Cn1cc(OS(C)(=O)=O)c(=O)c2ccc(C#N)cc21 | 268 °C
78 | CCC(c1cnc2c(C)c(NC(=O)c3ccc(-c4ccc(F)cc4)cc3)ccc2c1)N1CCCC1 (stereo not drawn) | 188 to 191 °C

Row | Compound | melting point
79 | CC[C@@H](c1ccccc1)N(Cc1ccc(C(=O)NCC(=O)O)cc1)S(=O)(=O)c1ccc(Cl)cc1 | 136 to 139 °C
80 | Cc1nc(N)nc(N)c1-c1cc(Br)ccc1Cl | 212 to 216 °C
81 | Nc1ccc(OCCCN2C(=O)c3ccccc3C2=O)cc1[N+](=O)[O-] | 164 °C
82 | CC(C)(C)OC(=O)N1Cc2c(-c3noc(C4CC4)n3)ncn2-c2ccccc21 | 204 °C
83 | COC(=O)CCc1nc(C=O)ccc1OC | 95 to 97 °C
84 | C=CCOc1ccc2cc(S(N)(=O)=O)sc2c1 | 101 to 102 °C
85 | CN(C)c1nc(=O)c(C(C)(C)C)nn1N | 168 to 169 °C
86 | CCC(CC)(CCCS(N)(=O)=O)COc1nn2ncnc2cc1C | 157 to 158 °C
87 | O=C(Nc1cccnn1)N1CCN(c2nc(-c3cccc(F)c3F)cs2)CC1 | 215 to 216 °C
88 | Cc1nccn1C(=O)NC1CCCCC1 | 100 to 102 °C
89 | N#Cc1ccc(N(Cc2ccc(OCc3ccccc3)cc2)n2cnnc2)cc1-c1ccco1 | 181 to 182 °C
90 | O=C(CBr)Nc1ccc(Cl)cc1C(=O)c1ccc(O)cc1 | 201 to 203 °C
91 | CC1CCN(c2cc(-c3ncccn3)nc(Cl)c2-c2c(F)cccc2Cl)CC1 | 129 °C
92 | COc1ccc2c(c1)cc(C=O)n2C | 88 to 90 °C
93 | Cc1cc(C)c(C2CC(=O)C=C(O)C2)c(C)c1 (stereo not drawn) | 165 °C
94 | O=C(CCl)Nc1cccc([N+](=O)[O-])c1 | 110 to 112 °C
95 | Cc1cc(C(O)(C=Cc2ccc(Cl)cc2)C(F)(F)F)ccc1N (stereo not drawn) | 126 to 129 °C
96 | CC(C)C1NC(=O)CN1C(=O)CNC(=O)OCc1ccccc1 (stereo not drawn) | 137 to 139 °C
97 | CC#CC(O)(Cn1cncn1)c1ccc(Oc2ccc(Cl)cc2)cc1Cl (stereo not drawn) | 137 °C
98 | O=C(CCCCC1CCSS1)Nc1nc(=S)ss1 (stereo not drawn) | 158 to 161 °C
99 | Oc1ccc2[nH]cc(C3CCN(CCCCc4c[nH]c5ccccc45)CC3)c2c1 | 178 to 180 °C
100 | CC(Cl)(Cl)C(NC(=O)c1cccc(F)c1)NC(=NC#N)Nc1ccc(Cl)nc1 (stereo not drawn) | 191 to 192 °C
101 | CCNC(=O)Oc1cnn(C(C)(C)C)c1 | 77 °C
102 | O=C(CCCCl)Nc1nnc(-c2ccc(Br)cc2)s1 | 187 to 189 °C
103 | CSc1nc2ccnn2c(NCc2ccccc2)c1C#N | 165 °C
